Test results taken from patent US11458138B2 (Novartis AG, priority 2017, dated 2022).

Legend:
LATS1 = LATS1 (Homo sapiens (Human), UniProt O95835); test: LATS1 biochemical assay (Table 1A, Compound Examples 1-290; method in the earlier part)
[1] = tested on: YAP nuclear translocation in HaCaT cells; test: YAP Translocation Assay (HaCaT Cells); type: cell-based, human; details: Homo sapiens, 24 hours
Description: HaCaT cells were suspended at 0.4×10^6 cells/ml in DMEM+10% FBS with penicillin-streptomycin-glutamine. 50 μl of cells were dispensed into 384-well clear bottom assay plates (20,000 cells/well), and incubated overnight at 37° C. 100 nL test compound was transferred into the assay wells containing HaCaT cells using ECHO (Labcyte). After 24 hours incubation at 37° C., 7 μL of 32% PFA was dispensed into each well and incubated for 45 minutes at room temperature. Plates were washed 3 times with PBS, leaving 20 μL of PBS per well, then treated with 0.1% Triton and 1.5% BSA in PBS for 45 minutes at room temperature. Plates were washed for 5 times with PBS, leaving 20 μL of PBS per well. […] Plates were further washed 3 time with PBS, sealed and imaged on the high-content Opera imaging system (PerkinElmer).

[2] = tested on: Phospho-YAP (SER127) in HaCaT cells; test: pYAP HTRF Assay (HaCaT Cells); type: cell-based, human; details: Homo sapiens, 2 hours
Description: The pYAP HTRF assay was performed using the Phospho-YAP (SER127) 10000 test kit (CisBio, catalogue number 64YAPPEH) according to manufacturer's instructions. Briefly, HaCaT cells were suspended at 1.1×10^6 cells/mL in DMEM (no phenol red)+10% FBS with penicillin-streptomycin-glutamine. 5 μL of cells were dispensed into 1536 well white solid bottom, tissue culture treated plates (5500 cells/well), and incubated for 48 hours at 37° C. 50 nL test compound was transferred into the assay plates containing HaCaT cells using Pintool (GNF) and incubated for 2 hours. […] The plates were incubated overnight (20 hrs) at room temperature covered with metal lids. Plates were read on Pherastar (BMG Labtech) for HTRF (665 nm/620 nm).

LATS1, sequence (O95835 whole entry, looked up): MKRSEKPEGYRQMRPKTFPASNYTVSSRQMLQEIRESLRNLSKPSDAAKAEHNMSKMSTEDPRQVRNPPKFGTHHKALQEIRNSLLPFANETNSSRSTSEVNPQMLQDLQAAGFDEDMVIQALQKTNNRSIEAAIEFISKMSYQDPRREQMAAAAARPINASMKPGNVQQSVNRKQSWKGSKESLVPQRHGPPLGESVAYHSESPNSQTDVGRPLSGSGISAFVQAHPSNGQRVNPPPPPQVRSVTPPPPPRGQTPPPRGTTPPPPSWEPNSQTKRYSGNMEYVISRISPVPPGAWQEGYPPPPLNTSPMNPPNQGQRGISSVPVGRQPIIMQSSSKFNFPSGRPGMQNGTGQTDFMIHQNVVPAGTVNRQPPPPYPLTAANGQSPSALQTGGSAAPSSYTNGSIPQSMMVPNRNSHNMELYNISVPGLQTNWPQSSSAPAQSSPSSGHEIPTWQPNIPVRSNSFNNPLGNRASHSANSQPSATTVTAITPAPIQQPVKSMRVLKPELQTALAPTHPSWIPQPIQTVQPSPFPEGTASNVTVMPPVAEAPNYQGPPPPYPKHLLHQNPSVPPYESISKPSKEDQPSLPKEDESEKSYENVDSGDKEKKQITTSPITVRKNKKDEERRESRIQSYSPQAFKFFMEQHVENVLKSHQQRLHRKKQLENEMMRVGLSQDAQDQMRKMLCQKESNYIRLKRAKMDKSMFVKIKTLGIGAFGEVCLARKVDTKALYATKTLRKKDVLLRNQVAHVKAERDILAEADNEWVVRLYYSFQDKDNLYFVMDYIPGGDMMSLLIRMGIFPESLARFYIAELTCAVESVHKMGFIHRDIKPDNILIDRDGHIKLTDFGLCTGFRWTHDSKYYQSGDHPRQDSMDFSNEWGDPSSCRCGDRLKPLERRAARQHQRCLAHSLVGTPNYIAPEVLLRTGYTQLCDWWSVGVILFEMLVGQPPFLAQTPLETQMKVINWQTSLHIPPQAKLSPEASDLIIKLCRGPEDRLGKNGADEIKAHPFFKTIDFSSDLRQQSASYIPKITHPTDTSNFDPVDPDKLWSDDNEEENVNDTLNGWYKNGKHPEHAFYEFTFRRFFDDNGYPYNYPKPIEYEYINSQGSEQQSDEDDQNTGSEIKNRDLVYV
LATS1, sequence (Q7L9L4 whole entry partner, looked up): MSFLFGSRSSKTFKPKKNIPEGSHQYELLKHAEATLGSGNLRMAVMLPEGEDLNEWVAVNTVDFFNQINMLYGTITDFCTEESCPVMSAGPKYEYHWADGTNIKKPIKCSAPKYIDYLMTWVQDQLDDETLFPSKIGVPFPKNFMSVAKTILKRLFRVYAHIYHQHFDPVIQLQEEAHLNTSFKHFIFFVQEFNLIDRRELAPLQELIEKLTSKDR

SMILES | IC50 (LATS1) | EC50 [1] | IC50 [2]
CC(C)(CCS(C)(=O)=O)Nc1nc(-c2ccncc2Cl)nc2cnccc12 [Example 129, 2-(3-chloropyridin-4-yl)-N-(4-methanesulfonyl-2-methylbutan-2-yl)pyrido[3,4-d]pyrimidin-4-amine] | 187 nM | > 20000 nM | –
CC(C)(C)Nc1nc(-c2ccncc2C(F)(F)F)nc2cnccc12 [Example 130, N-tert-butyl-2-[3-(trifluoromethyl)pyridin-4-yl]pyrido[3,4-d]pyrimidin-4-amine] | 1150 nM | > 20000 nM | –
CC(C)(C)Nc1nc(-c2cc(Cl)ncc2C(F)(F)F)nc2cnccc12 [Example 131, N-tert-butyl-2-[2-chloro-5-(trifluoromethyl)pyridin-4-yl]pyrido[3,4-d]pyrimidin-4-amine] | > 833 nM | > 20000 nM | –
Clc1cnccc1-c1nc(NCCCc2nnn[nH]2)c2ccncc2n1 [Example 132, 2-(3-chloropyridin-4-yl)-N-[3-(1H-1,2,3,4-tetrazol-5-yl)propyl]pyrido[3,4-d]pyrimidin-4-amine] | > 2500 nM | > 20000 nM | –
Cc1n[nH]c(C)c1-c1nc(NC(C)(C)C(F)(F)F)c2ccncc2n1 [Example 144, 2-(3,5-dimethyl-1H-pyrazol-4-yl)-N-(1,1,1-trifluoro-2-methylpropan-2-yl)pyrido[3,4-d]pyrimidin-4-amine] | – | 4440 nM | 606 nM
CC1(Nc2nc(-c3ccnc(F)c3F)nc3cnccc23)CC1 [Example 148, 2-(2,3-difluoropyridin-4-yl)-N-(1-methylcyclopropyl)pyrido[3,4-d]pyrimidin-4-amine] | 168 nM | > 20000 nM | –
CC1(Nc2nc(-c3cnoc3)nc3cnccc23)CC1 [Example 152, N-(1-methylcyclopropyl)-2-(1,2-oxazol-4-yl)pyrido[3,4-d]pyrimidin-4-amine] | > 2500 nM | > 20000 nM | –
CCCNc1nc(-c2ccncc2C)nc2cnccc12 [Example 164, 2-(3-methylpyridin-4-yl)-N-propylpyrido[3,4-d]pyrimidin-4-amine] | 159 nM | > 20000 nM | –
CCCNc1nc(-c2cn(C)c3ncccc23)nc2cnccc12 [Example 165, 2-{1-methyl-1H-pyrrolo[2,3-b]pyridin-3-yl}-N-propylpyrido[3,4-d]pyrimidin-4-amine] | > 2500 nM | > 20000 nM | –
CC1(Nc2nc(-c3ccn[nH]3)nc3cnccc23)CC1 [Example 176, N-(1-methylcyclopropyl)-2-(1H-pyrazol-5-yl)pyrido[3,4-d]pyrimidin-4-amine] | > 2500 nM | > 20000 nM | –
CC1(Nc2nc(-c3cnc[nH]3)nc3cnccc23)CC1 [Example 177, 2-(1H-imidazol-5-yl)-N-(1-methylcyclopropyl)pyrido[3,4-d]pyrimidin-4-amine] | > 2500 nM | > 20000 nM | –
Cn1cncc1-c1nc(NC2(C)CC2)c2ccncc2n1 [Example 178, 2-(1-methyl-1H-imidazol-5-yl)-N-(1-methylcyclopropyl)pyrido[3,4-d]pyrimidin-4-amine] | > 2500 nM | > 20000 nM | –
Cc1cc(-c2nc(NC3(C)CC3)c3ccncc3n2)on1 [Example 181, 2-(3-methyl-1,2-oxazol-5-yl)-N-(1-methylcyclopropyl)pyrido[3,4-d]pyrimidin-4-amine] | 9000 nM | > 10000 nM | –
CC1(Nc2nc(-c3nn[nH]n3)nc3cnccc23)CC1 [Example 182, N-(1-methylcyclopropyl)-2-(2H-1,2,3,4-tetrazol-5-yl)pyrido[3,4-d]pyrimidin-4-amine] | > 10000 nM | > 20000 nM | –
CC(Nc1nc(-c2cn[nH]c2)nc2cnccc12)c1ccncc1 (stereo not drawn) [Example 183, 2-(1H-pyrazol-4-yl)-N-[1-(pyridin-4-yl)ethyl]pyrido[3,4-d]pyrimidin-4-amine] | 797 nM | > 20000 nM | –
CC(C)(CCO)Nc1cc(-c2ccncc2)nc2cnccc12 [Example 260, 3-methyl-3-{[2-(pyridin-4-yl)-1,7-naphthyridin-4-yl]amino}butan-1-ol] | 459 nM | > 20000 nM | –
Fc1cnccc1-c1cc(N2CCOCC2)c2ccncc2n1 [Example 279, 2-(3-fluoropyridin-4-yl)-4-(morpholin-4-yl)-1,7-naphthyridine] | > 2500 nM | > 20000 nM | –
CC(C)(C)Nc1cc(-c2ccncc2Cl)nc2cnccc12 [Example 285, N-tert-butyl-2-(3-chloropyridin-4-yl)-1,7-naphthyridin-4-amine] | 190 nM | > 20000 nM | –
CCN(CC)c1cc(-c2ccncc2Cl)nc2cnccc12 [Example 286, 2-(3-chloropyridin-4-yl)-N,N-diethyl-1,7-naphthyridin-4-amine] | 560 nM | > 20000 nM | –

Now from value to compound, other results behind:

IC50 (LATS1) | SMILES | EC50 [1] | IC50 [2]
55 nM | CC(C)(O)COCC(C)(C)Nc1nc(-c2ccncc2Cl)nc2cnccc12 [Example 127, 1-(2-{[2-(3-chloropyridin-4-yl)pyrido[3,4-d]pyrimidin-4-yl]amino}-2-methylpropoxy)-2-methylpropan-2-ol] | > 20000 nM | –
77 nM | Cc1cnccc1-c1nc(N(C)C(C)C)c2ccncc2n1 [Example 128, N-methyl-2-(3-methylpyridin-4-yl)-N-(propan-2-yl)pyrido[3,4-d]pyrimidin-4-amine] | > 20000 nM | –
33 nM | CC(C)(O)CC(C)(C)Nc1nc(-c2ccncc2C#N)nc2cnccc12 [Example 146, 4-{4-[(4-hydroxy-2,4-dimethylpentan-2-yl)amino]pyrido[3,4-d]pyrimidin-2-yl}pyridine-3-carbonitrile] | > 20000 nM | –
49 nM | CCCNc1nc(-c2ccncc2Cl)nc2cnccc12 [Example 162, 2-(3-chloropyridin-4-yl)-N-propylpyrido[3,4-d]pyrimidin-4-amine] | > 20000 nM | –
51 nM | CCCNc1nc(-c2c[nH]nc2C2CC2)nc2cnccc12 [Example 163, 2-(3-cyclopropyl-1H-pyrazol-4-yl)-N-propylpyrido[3,4-d]pyrimidin-4-amine] | > 20000 nM | –
14 nM | CC(C)(O)CC(C)(C)Nc1nc(-c2cn[nH]c2)nc2cnccc12 [Example 166, 2,4-dimethyl-4-{[2-(1H-pyrazol-4-yl)pyrido[3,4-d]pyrimidin-4-yl]amino}pentan-2-ol] | 8450 nM | –
143 nM | C[C@@H](Nc1nc(-c2cn[nH]c2)nc2cnccc12)c1ccccc1 [Example 167, N-[(1R)-1-phenylethyl]-2-(1H-pyrazol-4-yl)pyrido[3,4-d]pyrimidin-4-amine] | > 20000 nM | –
54 nM | CN(c1nc(-c2cn[nH]c2)nc2cnccc12)C1(C)CC1 [Example 171, N-methyl-N-(1-methylcyclopropyl)-2-(1H-pyrazol-4-yl)pyrido[3,4-d]pyrimidin-4-amine] | 17200 nM | –
61 nM | CCn1nccc1-c1nc(NC2(C)CC2)c2ccncc2n1 [Example 173, 2-(1-ethyl-1H-pyrazol-5-yl)-N-(1-methylcyclopropyl)pyrido[3,4-d]pyrimidin-4-amine] | > 20000 nM | –
9 nM | Cc1n[nH]cc1-c1nc(NC2(CO)CCC2)c2ccncc2n1 [Example 185, (1-{[2-(3-methyl-1H-pyrazol-4-yl)pyrido[3,4-d]pyrimidin-4-yl]amino}cyclobutyl)methanol] | 11500 nM | –
83 nM | Cn1nccc1-c1nc(NC2(C(F)(F)F)CC2)c2ccncc2n1 [Example 189, 2-(1-methyl-1H-pyrazol-5-yl)-N-[1-(trifluoromethyl)cyclopropyl]pyrido[3,4-d]pyrimidin-4-amine] | > 10000 nM | –
99 nM | Cc1n[nH]cc1-c1nc(NC(C)c2ccncc2)c2ccncc2n1 (stereo not drawn) [Example 190, 2-(3-methyl-1H-pyrazol-4-yl)-N-[1-(pyridin-4-yl)ethyl]pyrido[3,4-d]pyrimidin-4-amine] | > 20000 nM | –
61 nM | CC(C)N(C)c1cc(-c2ccncc2)nc2cnccc12 [Example 259, N-methyl-N-(propan-2-yl)-2-(pyridin-4-yl)-1,7-naphthyridin-4-amine] | 17300 nM | –
3 nM | CC1(C)CC(O)CCN1c1cc(-c2ccncc2)nc2cnccc12 (stereo not drawn) [Example 262, 2,2-dimethyl-1-[2-(pyridin-4-yl)-1,7-naphthyridin-4-yl]piperidin-4-ol] | 311 nM | –
9 nM | CCN(CC)c1cc(-c2ccncc2)nc2cnccc12 [Example 266, N,N-diethyl-2-(pyridin-4-yl)-1,7-naphthyridin-4-amine] | 5350 nM | –
65 nM | CC(C)N(C)c1cc(-c2ccncc2F)nc2cnccc12 [Example 277, 2-(3-fluoropyridin-4-yl)-N-methyl-N-(propan-2-yl)-1,7-naphthyridin-4-amine] | > 20000 nM | –
90 nM | Fc1cnccc1-c1cc(N2CCCCC2)c2ccncc2n1 [Example 278, 2-(3-fluoropyridin-4-yl)-4-(piperidin-1-yl)-1,7-naphthyridine] | > 20000 nM | –
